Earlier results, collected in patent US11111202B2, “Production of salts of 4-hydroxybutyrate using biobased raw materials” (CJ Cheiljedang Corporation, priority 2012, dated 2021).

Experiments:
[1] = or even longer if large doses have been consumed
[2] = after oral administration

O=C(O)CCCO [GHB, γ-Hydroxybutyric acid]
duration of the effects of GHB [1]: 1.5 to 3 h | time of peak plasma concentration [2]: 20 to 60 min
